ChEMBL document CHEMBL1201862, “PubChem BioAssay data set” (2004)
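Each compound was tested at five concentrations against cells in 96-well plates for 48 hours. The concentration for 50% growth inhibition is given as GI50.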 Active and inactive are the calls of the source. Rule as the data show it: active = GI50 up to about 1.1 µM and inactive = higher.

What was measured:
Assay in all cases: NCI tumour cell line growth inhibition, 48 h
[1] = system: 786-0
[2] = system: CCRF-CEM
[3] = system: DU-145
[4] = system: EKVX
[5] = system: HOP-62
[6] = system: IGROV-1
[7] = system: KM12
[8] = system: MDA-N
[9] = system: NCI-H226
[10] = system: NCI-H23
[11] = system: NCI/ADR-RES
[12] = system: OVCAR-3
[13] = system: OVCAR-5
[14] = system: RXF 393
[15] = system: SF-268
[16] = system: SK-MEL-28
[17] = system: SW-620
[18] = system: U-251
[19] = system: SF-539
[20] = system: SR

Measured: GI50

COc1ccc2nc(N/N=C/c3sccc3C)cc(C)c2c1
inactive: [1] 14.4 µM | [2] 19.5 µM | [3] 19.4 µM | [4] 18.2 µM | [5] 16.4 µM | [6] 15.1 µM | [7] 22.5 µM | [8] 16.5 µM | [9] 18.8 µM | [10] 10.1 µM | [11] 21.6 µM | [12] 18.8 µM | [13] 23.2 µM | [14] 19.1 µM | [15] 16.5 µM | [16] 18.1 µM | [17] 20.8 µM | [18] 15.4 µM

CC(=O)NCCCCN(CCCNC(C)=O)C(=O)CNS(=O)(=O)c1cccc2c(N(C)C)cccc12
inactive: [1] > 100 µM | [2] > 100 µM | [3] > 100 µM | [4] > 100 µM | [5] > 100 µM | [6] > 100 µM | [8] > 100 µM | [9] > 100 µM | [10] > 100 µM | [12] > 100 µM | [13] > 100 µM | [14] > 100 µM | [15] > 100 µM | [19] > 100 µM | [16] > 100 µM | [20] > 100 µM | [17] > 100 µM | [18] > 100 µM

Cc1cc(Br)cc(C)c1NC(=O)C(=O)Nn1c(S)nc2ccccc2c1=O
inactive: [1] > 100 µM | [2] > 100 µM | [4] > 100 µM | [5] > 100 µM | [6] > 100 µM | [7] > 100 µM | [8] > 100 µM | [9] > 100 µM | [10] > 100 µM | [11] > 100 µM | [12] > 100 µM | [13] > 100 µM | [14] > 100 µM | [15] > 100 µM | [19] > 100 µM | [16] > 100 µM | [20] > 100 µM | [17] > 100 µM | [18] > 100 µM

O=C1CN(c2ccc(Cl)cc2)C(=O)CN1CCN1CC(=O)N(c2ccc(Cl)cc2)CC1=O
inactive: [1] > 100 µM | [2] > 100 µM | [3] > 100 µM | [4] > 100 µM | [5] > 100 µM | [6] > 100 µM | [7] > 100 µM | [8] > 100 µM | [10] > 100 µM | [12] > 100 µM | [13] > 100 µM | [14] > 100 µM | [15] > 100 µM | [16] > 100 µM | [20] > 100 µM | [17] > 100 µM | [18] > 100 µM

CCN(CC)CCn1nc(N)c2nc3ccccc3nc21
inactive: [1] > 100 µM | [2] > 100 µM | [4] > 100 µM | [5] > 100 µM | [6] > 100 µM | [7] > 100 µM | [8] > 100 µM | [9] > 100 µM | [10] > 100 µM | [11] > 100 µM | [12] > 100 µM | [13] > 100 µM | [14] > 100 µM | [15] > 100 µM | [19] > 100 µM | [16] > 100 µM | [20] 59.8 µM | [17] 93.5 µM | [18] > 100 µM

O=C(O)c1cc(NC2=C(Cl)C(=O)c3c(O)ccc(O)c3C2=O)ccc1O
inactive: [1] > 10 µM | [2] > 10 µM | [3] > 10 µM | [4] > 10 µM | [5] > 10 µM | [6] > 10 µM | [7] > 10 µM | [8] > 10 µM | [9] > 10 µM | [10] > 10 µM | [11] > 10 µM | [12] > 10 µM | [13] > 10 µM | [15] > 10 µM | [19] > 10 µM | [16] > 10 µM | [17] > 10 µM | [18] > 10 µM

OCC(O)COCn1nncc1Cn1ncc2c(SCc3ccccc3)ncnc21 (stereo not drawn)
inactive: [1] > 100 µM | [2] > 100 µM | [3] > 100 µM | [4] > 100 µM | [5] > 100 µM | [6] > 100 µM | [7] > 100 µM | [8] > 100 µM | [10] > 100 µM | [11] > 100 µM | [12] > 100 µM | [13] > 100 µM | [15] 14.5 µM | [19] > 100 µM | [16] > 100 µM | [17] > 100 µM | [18] > 100 µM

O=[N+]([O-])c1ccc(C2c3c(O)nc(O)nc3Oc3nc(O)nc(O)c32)cc1
inactive: [1] > 100 µM | [2] 13.8 µM | [3] > 100 µM | [4] > 100 µM | [5] > 100 µM | [6] > 100 µM | [7] > 100 µM | [8] > 100 µM | [9] > 100 µM | [10] > 100 µM | [12] > 100 µM | [13] > 100 µM | [14] 8.36 µM | [15] > 100 µM | [16] > 100 µM | [17] > 100 µM | [18] > 100 µM
